Assay results from the supplement of paper PMC10307832.

Assays:
Assay in all cases: relative viability (nuclei count vs DMSO), 5 days (fraction); higher = more cells survive
[1] = test system: HCC-366
Procedure, shortened: (§1)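 After 5 days of treatment, lung cancer cells in 1536-well plates were fixed and stained in a single step (final 0.05% Triton X-100, 1% formaldehyde, 1 ug/ml Hoechst) and their nuclei counted on 4× images. Treatment had been applied by pin tool the day after seeding as one drug alone or as a fixed anchor-drug dose with five library-drug doses (not always all listed) in √10 steps. Relative viability is the nuclei count of treated wells divided by that of vehicle wells, and values are medians of duplicate plates.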

[2] = test system: HCC-44
Procedure, shortened: as §1

[3] = test system: LOU-NH91
Procedure, shortened: as §1

[4] = test system: LXF-289
Procedure, shortened: as §1

[5] = test system: NCI-H1437
Procedure, shortened: as §1

[6] = test system: NCI-H1648
Procedure, shortened: as §1

[7] = test system: NCI-H2085
Procedure, shortened: as §1

[8] = test system: NCI-H3122
Procedure, shortened: as §1

Nc1ccn([C@@H]2O[C@H](CO)[C@@H](O)[C@@H]2O)c(=O)n1 [Cytarabine] + CC(=O)Nc1cccc(-n2c(=O)n(C3CC3)c(=O)c3c(Nc4ccc(I)cc4F)n(C)c(=O)c(C)c32)c1 [Trametinib] (partner 0.02 µM)
relative viability ([1]; first compound 0.005 µM): 0.276 | relative viability ([1]; first compound 0.01581 µM): 0.33 | relative viability ([1]; first compound 0.05 µM): 0.178 | relative viability ([1]; first compound 0.1581 µM): 0.0948 | relative viability ([1]; first compound 0.5 µM): 0.086 | relative viability ([2]; first compound 0.005 µM): 1.08 | relative viability ([2]; first compound 0.01581 µM): 1.03 | relative viability ([2]; first compound 0.05 µM): 1.08 | relative viability ([2]; first compound 0.1581 µM): 1.04 | relative viability ([2]; first compound 0.5 µM): 1.01 | relative viability ([3]; first compound 0.005 µM): 0.758 | relative viability ([3]; first compound 0.01581 µM): 0.807 | relative viability ([3]; first compound 0.05 µM): 0.699 | relative viability ([3]; first compound 0.1581 µM): 0.657 | relative viability ([3]; first compound 0.5 µM): 0.644 | relative viability ([4]; first compound 0.005 µM): 0.632 | relative viability ([4]; first compound 0.01581 µM): 0.573 | relative viability ([4]; first compound 0.05 µM): 0.62 | relative viability ([4]; first compound 0.1581 µM): 0.428 | relative viability ([4]; first compound 0.5 µM): 0.287 | relative viability ([5]; first compound 0.005 µM): 0.503 | relative viability ([5]; first compound 0.01581 µM): 0.406 | relative viability ([5]; first compound 0.05 µM): 0.416 | relative viability ([5]; first compound 0.1581 µM): 0.238 | relative viability ([5]; first compound 0.5 µM): 0.178 | relative viability ([6]; first compound 0.005 µM): 0.419 | relative viability ([6]; first compound 0.01581 µM): 0.4 | relative viability ([6]; first compound 0.05 µM): 0.44 | relative viability ([6]; first compound 0.1581 µM): 0.36 | relative viability ([6]; first compound 0.5 µM): 0.373 | relative viability ([7]; first compound 0.005 µM): 0.504 | relative viability ([7]; first compound 0.01581 µM): 0.552 | relative viability ([7]; first compound 0.05 µM): 0.5 | relative viability ([7]; first compound 0.1581 µM): 0.26 | relative viability ([7]; first compound 0.5 µM): 0.39 | relative viability ([8]; first compound 0.005 µM): 0.221 | relative viability ([8]; first compound 0.01581 µM): 0.252 | relative viability ([8]; first compound 0.05 µM): 0.187 | relative viability ([8]; first compound 0.1581 µM): 0.177 | relative viability ([8]; first compound 0.5 µM): 0.139

Nc1ccn([C@@H]2O[C@H](CO)[C@@H](O)[C@@H]2O)c(=O)n1 [Cytarabine] + CC(=O)c1c(C)c2cnc(Nc3ccc(N4CCNCC4)cn3)nc2n(C2CCCC2)c1=O [Palbociclib] (partner 0.5 µM)
relative viability ([1]; first compound 0.005 µM): 0.302 | relative viability ([1]; first compound 0.01581 µM): 0.287 | relative viability ([1]; first compound 0.05 µM): 0.245 | relative viability ([1]; first compound 0.1581 µM): 0.0953 | relative viability ([1]; first compound 0.5 µM): 0.0777 | relative viability ([2]; first compound 0.005 µM): 0.997 | relative viability ([2]; first compound 0.01581 µM): 0.942 | relative viability ([2]; first compound 0.05 µM): 0.911 | relative viability ([2]; first compound 0.1581 µM): 0.806 | relative viability ([2]; first compound 0.5 µM): 0.812 | relative viability ([3]; first compound 0.005 µM): 0.478 | relative viability ([3]; first compound 0.01581 µM): 0.54 | relative viability ([3]; first compound 0.05 µM): 0.562 | relative viability ([3]; first compound 0.1581 µM): 0.432 | relative viability ([3]; first compound 0.5 µM): 0.412 | relative viability ([4]; first compound 0.005 µM): 0.49 | relative viability ([4]; first compound 0.01581 µM): 0.563 | relative viability ([4]; first compound 0.05 µM): 0.511 | relative viability ([4]; first compound 0.1581 µM): 0.296 | relative viability ([4]; first compound 0.5 µM): 0.287 | relative viability ([5]; first compound 0.005 µM): 0.284 | relative viability ([5]; first compound 0.01581 µM): 0.28 | relative viability ([5]; first compound 0.05 µM): 0.237 | relative viability ([5]; first compound 0.1581 µM): 0.192 | relative viability ([5]; first compound 0.5 µM): 0.196 | relative viability ([6]; first compound 0.005 µM): 0.29 | relative viability ([6]; first compound 0.01581 µM): 0.283 | relative viability ([6]; first compound 0.05 µM): 0.263 | relative viability ([6]; first compound 0.1581 µM): 0.308 | relative viability ([6]; first compound 0.5 µM): 0.273 | relative viability ([7]; first compound 0.005 µM): 0.445 | relative viability ([7]; first compound 0.01581 µM): 0.425 | relative viability ([7]; first compound 0.05 µM): 0.393 | relative viability ([7]; first compound 0.1581 µM): 0.294 | relative viability ([7]; first compound 0.5 µM): 0.266 | relative viability ([8]; first compound 0.005 µM): 0.188 | relative viability ([8]; first compound 0.01581 µM): 0.389 | relative viability ([8]; first compound 0.05 µM): 0.122 | relative viability ([8]; first compound 0.1581 µM): 0.126 | relative viability ([8]; first compound 0.5 µM): 0.113

Nc1ccn([C@@H]2O[C@H](CO)[C@@H](O)[C@@H]2O)c(=O)n1 [Cytarabine] + Nc1nc2[nH]cc(CCc3ccc(C(=O)N[C@@H](CCC(=O)O)C(=O)O)cc3)c2c(=O)[nH]1 [Pemetrexed] (partner 0.2 µM)
relative viability ([1]; first compound 0.005 µM): 0.161 | relative viability ([1]; first compound 0.01581 µM): 0.217 | relative viability ([1]; first compound 0.05 µM): 0.25 | relative viability ([1]; first compound 0.1581 µM): 0.0693 | relative viability ([1]; first compound 0.5 µM): 0.062 | relative viability ([2]; first compound 0.005 µM): 0.717 | relative viability ([2]; first compound 0.01581 µM): 0.629 | relative viability ([2]; first compound 0.05 µM): 0.67 | relative viability ([2]; first compound 0.1581 µM): 0.751 | relative viability ([2]; first compound 0.5 µM): 0.774 | relative viability ([3]; first compound 0.005 µM): 0.383 | relative viability ([3]; first compound 0.01581 µM): 0.395 | relative viability ([3]; first compound 0.05 µM): 0.379 | relative viability ([3]; first compound 0.1581 µM): 0.318 | relative viability ([3]; first compound 0.5 µM): 0.339 | relative viability ([4]; first compound 0.005 µM): 0.729 | relative viability ([4]; first compound 0.01581 µM): 0.864 | relative viability ([4]; first compound 0.05 µM): 0.808 | relative viability ([4]; first compound 0.1581 µM): 0.36 | relative viability ([4]; first compound 0.5 µM): 0.268 | relative viability ([5]; first compound 0.005 µM): 0.339 | relative viability ([5]; first compound 0.01581 µM): 0.344 | relative viability ([5]; first compound 0.05 µM): 0.335 | relative viability ([5]; first compound 0.1581 µM): 0.321 | relative viability ([5]; first compound 0.5 µM): 0.258 | relative viability ([6]; first compound 0.005 µM): 0.563 | relative viability ([6]; first compound 0.01581 µM): 0.733 | relative viability ([6]; first compound 0.05 µM): 0.838 | relative viability ([6]; first compound 0.1581 µM): 0.653 | relative viability ([6]; first compound 0.5 µM): 0.515 | relative viability ([7]; first compound 0.005 µM): 0.788 | relative viability ([7]; first compound 0.01581 µM): 0.921 | relative viability ([7]; first compound 0.05 µM): 0.906 | relative viability ([7]; first compound 0.1581 µM): 0.703 | relative viability ([7]; first compound 0.5 µM): 0.547 | relative viability ([8]; first compound 0.005 µM): 0.207 | relative viability ([8]; first compound 0.01581 µM): 0.196 | relative viability ([8]; first compound 0.05 µM): 0.227 | relative viability ([8]; first compound 0.1581 µM): 0.381 | relative viability ([8]; first compound 0.5 µM): 0.156

CC(=O)O[C@@]12CO[C@@H]1C[C@H](O)[C@@]1(C)C(=O)[C@H](O)C3=C(C)[C@@H](OC(=O)[C@H](O)[C@@H](NC(=O)OC(C)(C)C)c4ccccc4)C[C@@](O)([C@@H](OC(=O)c4ccccc4)[C@H]21)C3(C)C [Docetaxel] + CC(=O)Nc1cccc(-n2c(=O)n(C3CC3)c(=O)c3c(Nc4ccc(I)cc4F)n(C)c(=O)c(C)c32)c1 [Trametinib] (partner 0.02 µM)
relative viability ([1]; first compound 0.0002 µM): 0.303 | relative viability ([1]; first compound 0.000632 µM): 0.102 | relative viability ([1]; first compound 0.002 µM): 0.0555 | relative viability ([1]; first compound 0.006325 µM): 0.0799 | relative viability ([1]; first compound 0.02 µM): 0.0179 | relative viability ([2]; first compound 0.0002 µM): 1.04 | relative viability ([2]; first compound 0.000632 µM): 1 | relative viability ([2]; first compound 0.002 µM): 1.07 | relative viability ([2]; first compound 0.006325 µM): 0.577 | relative viability ([2]; first compound 0.02 µM): 0.472 | relative viability ([3]; first compound 0.0002 µM): 0.766 | relative viability ([3]; first compound 0.000632 µM): 0.783 | relative viability ([3]; first compound 0.002 µM): 0.607 | relative viability ([3]; first compound 0.006325 µM): 0.449 | relative viability ([3]; first compound 0.02 µM): 0.354 | relative viability ([4]; first compound 0.0002 µM): 0.648 | relative viability ([4]; first compound 0.000632 µM): 0.673 | relative viability ([4]; first compound 0.002 µM): 0.335 | relative viability ([4]; first compound 0.006325 µM): 0.18 | relative viability ([4]; first compound 0.02 µM): 0.109 | relative viability ([5]; first compound 0.0002 µM): 0.528 | relative viability ([5]; first compound 0.000632 µM): 0.501 | relative viability ([5]; first compound 0.002 µM): 0.264 | relative viability ([5]; first compound 0.006325 µM): 0.216 | relative viability ([6]; first compound 0.0002 µM): 0.435 | relative viability ([6]; first compound 0.000632 µM): 0.456 | relative viability ([6]; first compound 0.002 µM): 0.367 | relative viability ([6]; first compound 0.006325 µM): 0.288 | relative viability ([6]; first compound 0.02 µM): 0.193 | relative viability ([7]; first compound 0.0002 µM): 0.503 | relative viability ([7]; first compound 0.000632 µM): 0.513 | relative viability ([7]; first compound 0.002 µM): 0.324 | relative viability ([7]; first compound 0.006325 µM): 0.329 | relative viability ([7]; first compound 0.02 µM): 0.199 | relative viability ([8]; first compound 0.0002 µM): 0.219 | relative viability ([8]; first compound 0.000632 µM): 0.215 | relative viability ([8]; first compound 0.002 µM): 0.194 | relative viability ([8]; first compound 0.006325 µM): 0.194 | relative viability ([8]; first compound 0.02 µM): 0.128
